Source: article PMC12116161, “An Elastase Inhibitor ShSPI from Centipede Attenuates Bleomycin-Induced Pulmonary Fibrosis” (Toxins, 2025)
Entries after “also recorded” stand apart in the source; their conditions may differ. Where a SMILES comes first, the peptide text is derived from it. Bridges are numbered along the chain shown (N, C = ends).

Legend:
[1] = tested on: BLM-induced idiopathic pulmonary fibrosis (IPF) mouse model; assay: Body weight changes in BLM-induced IPF mouse model; assay type: in vivo, ICR mice; settings: tracheal spray once daily for 7 days, BLM-induced IPF mice
Description: (§1) Animal Model Preparation: The peptide powder was dissolved in pre-cooled saline and filtered to remove bacteria, then a spray needle was attached to a micro-syringe to aspirate the peptide solution. A total of 56 ICR mice were anesthetized by intramuscular injection of avertin. After anesthesia, the mice were fixed supine, the tongue was gently pulled, the vocal folds were exposed with a laryngoscope, the trachea was gently inserted, and the nebulized solution was rapidly pushed and injected. Each mouse was administered 100 μL of a 0.4 mg/mL bleomycin solution via tracheal spray, with the treatment performed once. Seven days after modeling, the mice were randomly grouped for ShSPI treatment based on weight loss scores. An additional 8 mice received the vehicle (normal saline) and were designated as the sham group.
(§2) A total of 48 suitable mice were randomly divided into five groups: the model control group (MC), the positive control group (PC), and the ShSPI low-dose groups (1 mg/kg), medium-dose groups (2 mg/kg), and high-dose groups (4 mg/kg).
Drug Administration: Starting on day 7 post-modeling, ShSPI peptide treatment groups were anesthetized with intramuscular avertin and received tracheal spray administration of the peptide. […]
Body Weight Monitoring: The body weight of the mice was monitored and recorded from the modeling phase to the end of treatment (a total of two weeks).

[2] = tested on: BLM-induced idiopathic pulmonary fibrosis (IPF) mouse model; assay: Histopathologic analysis of the lungs (H&E and Masson staining) of IPF mice; assay type: in vivo, ICR mice
Description: as §1, §2
(§3) Drug Administration: Starting on day 7 post-modeling, ShSPI peptide treatment groups were anesthetized with intramuscular avertin and received tracheal spray administration of the peptide. The low-dose group was treated with 1 mg/kg ShSPI peptide, the medium-dose group with 2 mg/kg, and the high-dose group with 4 mg/kg. The positive control group, without anesthesia, received 200 mg/kg pirfenidone (IPFD) via oral gavage. All groups were treated once daily for seven consecutive days.
Sample Collection: Twenty-four hours after the final treatment, all ICR mice were euthanized via intramuscular injection of suforane. […]
The samples from experiment 4.1 were then processed using standard protocols for paraffin embedding, and 5 μm thick paraffin sections were prepared. […] Multiple fields were randomly selected, and the severity of alveolar inflammation in each group was quantified according to criteria such as the area of tissue affected by inflammation. […]

[3] = tested on: MCP-1, IL-6, IL-1β, IFN-γ, IL-10, TGF-β mRNA in lung tissue; assay: RT-qPCR of inflammatory factor mRNA in lung tissue of IPF mice; assay type: in vivo, ICR mice; settings: tracheal spray once daily for 7 days, BLM-induced IPF mice
Description: as §1, §2, §3
The left lobe of the lung was collected from each mouse for total RNA extraction using RNAiso Plus, following the manufacturer’s instructions. The extracted RNA was quantified using a UV spectrophotometer. One microgram of total RNA was reverse transcribed into cDNA using a first-strand cDNA synthesis kit, following the provided protocol. Quantitative PCR (qPCR) was performed on a QuantStudio system using 2× SYBR Green qPCR Master Mix, and β-actin served as the internal control. The PCR reaction utilized a two-step protocol: 95 °C for 15 s, followed by 60 °C for 60 s, repeated for 40 cycles. Gene expression levels were calculated using the 2^−ΔΔCt method.

[4] = tested on: ICR healthy mice; assay: Single administration toxicity study: overall toxicity and examination of major organs; assay type: in vivo; settings: single airway spray
Description: Specific pathogen-free (SIPF) grade ICR healthy mice (with an equal number of males and females, procured from Hunan Slaughter King Laboratory Animal Co., Changsha, China) were randomly divided into four experimental groups and received ShSPI via airway spray at doses of 0 mg/kg (control), 40 mg/kg, 80 mg/kg, or 160 mg/kg in a single administration. Following treatment, the mice were monitored for a 14-day observation period. On the fourteenth day, blood plasma samples were collected for precise measurement and analysis of hematological and biochemical parameters. The specific process is as follows.
At the end of the 14-day observation period, all mice underwent a comprehensive gross anatomical examination. Key organs, including the heart, liver, spleen, lungs, kidneys, brain, and gastrointestinal tract, were evaluated for changes in surface color, morphological structure, size, and tissue texture.

[5] = ShSPI tracheal spray once daily for 7 days

`CC[C@H](C)[C@@H]1NC(=O)[C@H](C)NC(=O)[C@@H]2CCCN2C(=O)[C@@H]2CSSC[C@H](NC(=O)[C@H](CO)NC(=O)[C@H](CC(N)=O)NC(=O)[C@H](CO)NC(=O)[C@H](Cc3ccc(O)cc3)NC(=O)[C@H](CCSC)NC(=O)[C@H](CCCNC(=N)N)NC(=O)CNC(=O)[C@H](Cc3ccccc3)NC(=O)[C@H](CCC(=O)O)NC(=O)[C@H](CC(=O)O)NC(=O)[C@H](Cc3ccccc3)NC(=O)[C@H](C(C)C)NC(=O)[C@@H]3CCCN3C(=O)[C@H](CCC(N)=O)NC(=O)[C@H](Cc3ccc(O)cc3)NC1=O)C(=O)N[C@@H](CCC(=O)O)C(=O)N[C@@H](CCSC)C(=O)N[C@@H](CCC(N)=O)C(=O)N[C@@H](CCCNC(=N)N)C(=O)N[C@@H](C)C(=O)N[C@@H](CCCNC(=N)N)C(=O)N[C@H](C(=O)N[C@@H](CC(C)C)C(=O)N[C@@H](CCCNC(=N)N)C(=O)NCC(=O)O)CSSC[C@H](N)C(=O)N1CCC[C@H]1C(=O)N[C@@H](CCC(N)=O)C(=O)N[C@@H](C(C)C)C(=O)N2` [ShSPI] (H-CPQVCPAIYQPVFDEFGRMYSNSCEMQRARCLRG-OH; disulfide 1-31, 5-24; N-terminus and C-terminus assumed) was tested, and the body weight recovery ([1]; ShSPI low-dose group (1 mg/kg)) was “upward trend, albeit with a slower recovery rate”, the body weight recovery ([1]; ShSPI medium- and high-dose groups (2 and 4 mg/kg)) was “comparable to that of the positive control group” and the “effect on the model's damage (fibrotic lesions)” value ([2]; ShSPI 1 mg/kg tracheal spray once daily for 7 days, compared with 2 and 4 mg/kg) was “less effective”. The “collagen deposition in the lungs (Masson staining)” value [2, 5] was “substantial inhibition”, the “lung inflammation (H&E staining)” value [2, 5] was “substantial reduction” and the “TGF-β mRNA content in mouse lung tissue” value ([3]; ShSPI 1–4 mg/kg) was “no significant impact”. For the same compound, the “mRNA levels of pro-inflammatory cytokines (MCP-1, IL-6, IL-1β, IFN-γ) in lung tissue” value ([3]; ShSPI high dose 4 mg/kg, β-actin control) was “restored these pro-inflammatory cytokine ShSPI mRNA levels to normal”, the “IL-10 mRNA level in lung tissue” value ([3]; ShSPI low dose 1 mg/kg, β-actin control) was “restored the anti-inflammatory cytokine IL-10 mRNA levels to normal” and the “histopathological examination of major organs” value ([4]; doses up to 160 mg/kg, end of 14-day observation) was “no pathological changes”. The “toxicity after single administration” value ([4]; escalating doses up to 160 mg/kg, 14-day observation) was “no detectable toxicity observed; also recorded: did not show significant toxic effects”.
